Values after ≈ are worked out from the molar mass of the structure shown. Bounds are passed on as bounds.

A short description of data set [1]: Human Plasma Protein Binding (Test B). Conditions: fraction unbound (fu). The data set is classed as in vitro ADME. Summed up: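 Values given as % free (fu) in human plasma, using the method of Wernevik et al. (2020). For compounds tested more than once, the arithmetic mean is given.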
Data set [2] in a line: Human Liver Microsomal Stability (Test C). The data set is classed as in vitro ADME. Conditions: human, liver microsomes. In a few lines: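 CLint (μl/min/mg protein) derived from compound depletion in human liver microsomes following a published standardized early-DMPK protocol; replicate determinations given as arithmetic mean.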
For orientation: Liver microsomes are a subcellular fraction often used to study metabolism.

Data set [3] in a line: Rat Hepatocyte Stability (Test E). Particulars: rat, hepatocytes, geometric mean if run multiple times. The data set is classed as in vitro ADME. Summed up: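 Intrinsic clearance in rat hepatocytes, expressed as μl/min/10^6 cells, following the literature integrated DMPK panel method. Repeat determinations combined as geometric mean.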
A further data set is described as follows: Solubility (Test F). The data set is classed as physicochemical. Particulars: arithmetic mean if run multiple times. On the procedure:
The assay was conducted according to the Solubility Assay described in pages 164-167 of Wernevik, J. et al., “A Fully Integrated Assay Panel for Early Drug Metabolism and Pharmacokinetics Profiling”, Assay and Drug Development Technologies, 2020, 18(4), 157-179. Data are reported in Table 36 as solubility ([…]. Where the assay was run multiple times for the same compound, the arithmetic mean is reported.

The target in the next data set is T1, human RXFP1 (Homo sapiens, UniProt Q9HBX9).
T1 sequence (Q9HBX9 1-757): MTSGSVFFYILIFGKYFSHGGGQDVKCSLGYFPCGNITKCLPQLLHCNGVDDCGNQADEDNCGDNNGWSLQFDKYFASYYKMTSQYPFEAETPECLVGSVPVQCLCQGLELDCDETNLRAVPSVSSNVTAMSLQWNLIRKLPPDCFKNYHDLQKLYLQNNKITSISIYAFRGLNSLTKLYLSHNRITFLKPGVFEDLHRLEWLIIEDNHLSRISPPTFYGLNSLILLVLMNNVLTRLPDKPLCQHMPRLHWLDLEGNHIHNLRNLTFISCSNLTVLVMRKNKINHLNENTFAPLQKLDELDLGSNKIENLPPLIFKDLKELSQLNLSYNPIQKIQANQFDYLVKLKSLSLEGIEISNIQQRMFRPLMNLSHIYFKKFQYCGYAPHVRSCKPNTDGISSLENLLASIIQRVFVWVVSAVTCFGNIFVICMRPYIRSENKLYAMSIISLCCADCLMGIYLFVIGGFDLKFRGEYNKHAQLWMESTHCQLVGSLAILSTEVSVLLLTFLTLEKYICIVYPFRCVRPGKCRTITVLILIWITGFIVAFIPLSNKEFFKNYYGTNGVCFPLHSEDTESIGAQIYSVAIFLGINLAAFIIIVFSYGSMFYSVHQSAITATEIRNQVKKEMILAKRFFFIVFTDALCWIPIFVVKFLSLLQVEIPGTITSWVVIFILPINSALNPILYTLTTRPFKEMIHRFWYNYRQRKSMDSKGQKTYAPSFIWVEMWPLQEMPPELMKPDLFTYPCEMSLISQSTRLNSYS
In words: RXFP1 Hu cAMP (Test A). The data set is classed as cell-based. More on the design: expressed in transfected cells; host or cells: Jump-In T-REx CHO-K1 cells (ThermoFisher), induced with 10 ng/ml doxycycline for 24 h. Conditions: RXFP1 Hu cAMP; for EC50: read-out: Test A EC50. Summed up: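 Cells: CHO-K1 stably carrying human RXFP1, expressed after 24 h 10 ng/ml doxycycline; 0.5 mM IBMX final, HTRF detection after 2 h at room temperature.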

What is called microsomal CLint is the rate of metabolic loss divided by the concentration. Lower therefore signals slow turnover. For orientation: hepatocyte CLint means a measure of how fast metabolising enzymes remove a compound, apart from limits set by blood flow. A higher hepatocyte CLint goes with faster metabolism. By solubility is commonly meant how much of the substance goes into solution per volume. Read a high solubility as much dissolved substance. Usually EC50 stands for the concentration at which the effect is half-maximal. As for `COc1cc(F)c(O[C@H]2CC[C@@](C)(C(=O)O)CC2)cc1C(=O)N[C@@H]1[C@H]2CC[C@H](C2)[C@@H]1C(=O)NCC1(CF)CC1` [Example 48], the “Test B Human Plasma Protein Binding (% free)” value in data set [1] was determined as 13 % free. For the same compound, in data set [2], the microsomal CLint was less than 3 µL/min/mg. Also, in data set [3], the hepatocyte CLint came out at 18 µL/min/1e6 cells. The solubility in “Solubility (Test F)” is given as 1000 µM (≈ 549 µg/mL). Also, on human RXFP1, the “Test A Sinf” value is listed as 96% and the EC50 is 380 nM.
`COc1cc(F)c(O[C@H]2CC[C@@H](C(=O)O)CC2)cc1C(=O)N[C@@H]1[C@H]2CC[C@H](C2)[C@@H]1C(=O)Nc1cccc(OC(F)(F)F)c1` [Example 20]: in data set [1], the “Test B Human Plasma Protein Binding (% free)” value was 0.74 % free. Moreover, in data set [2], the microsomal CLint was found to be 28 µL/min/mg. The compound also registered a hepatocyte CLint in data set [3] of 63 µL/min/1e6 cells. In the data set “Solubility (Test F)”, the concentration in solution (solubility) was 980 µM (≈ 596 µg/mL). For the same compound, on human RXFP1, the “Test A Sinf” value is recorded as 102% and the EC50 came to 48 nM.
Regarding `COc1cc(F)c(O[C@H]2CC[C@@H](C(=O)O)CC2)cc1C(=O)N[C@@H]1[C@H]2CC[C@H](C2)[C@@H]1C(=O)Nc1ccc(Br)c(C(F)(F)F)c1` [Example 23], in data set [1], the “Test B Human Plasma Protein Binding (% free)” value is recorded as 0.24 % free. Also, the microsomal CLint in data set [2] worked out at 26 µL/min/mg. In data set [3], this compound returned a hepatocyte CLint of 19 µL/min/1e6 cells. In addition, the concentration in solution in “Solubility (Test F)” (solubility) was 8.7 µM (≈ 5.84 µg/mL). For the same compound, on human RXFP1, the “Test A Sinf” value is listed as 109% and the EC50 amounted to 20 nM.
Regarding `COc1cc(F)c(O[C@H]2CC[C@@H](C(=O)O)CC2)cc1C(=O)N[C@@H]1[C@H]2CC[C@H](C2)[C@@H]1C(=O)Nc1cccc(C(C)C)c1` [Example 196, (1S,4s)-4-(2-Fluoro-5-(((1S,2R,3S,4R)-3-((3-isopropylphenyl)carbamoyl)bicyclo[2.2.1]heptan-2-yl)carbamoyl)-4-methoxyphenoxy)cyclohexane-1-carboxylic acid], the “Test B Human Plasma Protein Binding (% free)” value in data set [1] stood at 1.7 % free. The compound further came in with a microsomal CLint in data set [2] of 40 µL/min/mg. Besides, in data set [3], the hepatocyte CLint stood at 79 µL/min/1e6 cells. The solubility in the data set “Solubility (Test F)” stood at 290 µM (≈ 164 µg/mL). On human RXFP1, the “Test A Sinf” value came to 103% and the EC50 stood at 220 nM.
For the compound `COc1cc(F)c(-c2cccc(C(=O)O)c2)cc1C(=O)N[C@H]1[C@@H](C(=O)Nc2cccc(S(=O)(=O)C(F)(F)F)c2)[C@@H]2C=C[C@H]1C2` (racemic) [Example 225, rac-2′-Fluoro-4′-methoxy-5′-(((1R,2R,3S,4S)-3-((3-((trifluoromethyl)sulfonyl)phenyl)carbamoyl)bicyclo[2.2.1]hept-5-en-2-yl)carbamoyl)-[1,1′-biphenyl]-3-carboxylic acid], in data set [1], the “Test B Human Plasma Protein Binding (% free)” value is 0.10 % free. The same compound showed a microsomal CLint in data set [2] of 6.6 µL/min/mg. This compound also yielded a hepatocyte CLint in data set [3] of 22 µL/min/1e6 cells. Further, the concentration in solution in the data set “Solubility (Test F)” (solubility) was 10 µM (≈ 6.33 µg/mL). In addition, on human RXFP1, the “Test A Sinf” value is reported as 98% and the EC50 came to 240 nM.
For the compound `COc1cc(F)c(O[C@H]2CC[C@@H](C(=O)O)CC2)cc1C(=O)N[C@@H]1[C@H]2CC[C@H](C2)[C@@H]1C(=O)Nc1ccc(C)c(C(F)(F)F)c1` [Example 192, (1S,4s)-4-(2-Fluoro-4-methoxy-5-(((1S,2R,3S,4R)-3-((4-methyl-3-(trifluoromethyl)phenyl)carbamoyl)bicyclo[2.2.1]heptan-2-yl)carbamoyl)phenoxy)cyclohexane-1-carboxylic acid], in data set [1], the “Test B Human Plasma Protein Binding (% free)” value is on record as 0.67 % free. In data set [2], this compound had a microsomal CLint of 21 µL/min/mg. In data set [3], this compound displayed a hepatocyte CLint of 43 µL/min/1e6 cells. Further, the solubility in “Solubility (Test F)” turned out to be 120 µM (≈ 72.8 µg/mL). In addition, on human RXFP1, the “Test A Sinf” value came to 109% and the EC50 is 35 nM.
With `COc1cc(F)c(O[C@H]2CC[C@@](C)(C(=O)O)CC2)cc1C(=O)N[C@@H]1CC[C@@H]1C(=O)Nc1ccc(F)c(C(F)(F)F)c1` [Example 51, (1S,4s)-4-(2-Fluoro-5-(((1R,2S)-2-((4-fluoro-3-(trifluoromethyl)phenyl)carbamoyl)cyclobutyl)carbamoyl)-4-methoxyphenoxy)-1-methylcyclohexane-1-carboxylic acid], in data set [1], the “Test B Human Plasma Protein Binding (% free)” value is on record as 0.50 % free. Further, in data set [2], the microsomal CLint came out at 8.5 µL/min/mg. The compound further came in with a hepatocyte CLint in data set [3] of 55 µL/min/1e6 cells. Further, the solubility in “Solubility (Test F)” worked out at 170 µM (≈ 99.4 µg/mL). In addition, on human RXFP1, the “Test A Sinf” value worked out at 112% and the EC50 amounted to 58 nM.

These data come from patent US11667602B2, “Compounds and their use” (AstraZeneca AB, priority 2020, dated 2023).
